Patent US20100272675A1, “METHOD OF ADMINISTERING CONJUGATES” (ENDOCYTE, INC., priority 2007, published 2010)

What was measured:
[1] = tested on: 4T1c2 cells (a breast tumor cell line); assay: Effect of ligand conjugates on tumor volume for mice with breast tumor implants; format: in vivo
Method: Two regimens were tested. In the first regimen, six to eight-week old (˜20-22 grams) female Balb/c mice were immunized with fluorescein isothiocyanate (FITC)-labeled keyhole limpet hemocyanin (KLH; see FIG. 5) at 35 μg/dose using a saponin adjuvant (e.g., GPI-0100; 100 μg/dose) at days 1, 15, and 29. On day 23, each animal was injected with 2.5×10^5 4T1c2 cells (a breast tumor cell line). Cancer loci were then allowed to grow. From days 42-60, all animals were injected daily ((qd×5)3; days 42-46, 49-53, and 56-60) with either phosphate buffered saline (PBS) or 500 nmol/kg of FITC-conjugated to folic acid via a gamma carboxyl-linked ethylene diamine bridge (see FIG. 4). The animals were injected on the same days with 20,000 U/dose of recombinant human IL-2. The animals were injected (TIW)3 with IL-2 in the same weeks as the animals were injected with folate-FITC.
In the second regimen, six to eight-week old (˜20-22 grams) female Balb/c mice were immunized with fluorescein isothiocyanate (FITC)-labeled keyhole limpet hemocyanin (KLH) at 35 μg/dose using a saponin adjuvant (e.g., GPI-0100; 100 μg/dose) at days 1, 15, and 29. On day 5, each animal was injected with 2.5×10^5 4T1c2 cells. Cancer loci were then allowed to grow. From days 8-50, all animals were injected daily ((qd×5)6) with either phosphate buffered saline (PBS) or 500 nmol/kg of FITC-conjugated to folic acid via a gamma carboxyl-linked ethylene diamine bridge. The animals were injected daily on days 32-50 with 20,000 U/dose of recombinant human IL-2. The animals were injected (TIW)3 with IL-2 in the same weeks as the animals were injected with folate-FITC.
The efficacy of this immunotherapy was then evaluated by monitoring tumor volume as a function of time for folate-FITC treated mice compared to control animals.

[2] = Active systemic anaphylaxis assay in guinea pigs immunized against EC90 plus GPI-0100 adjuvant; format: in vivo; conditions: guinea pigs immunized days 1, 8, 15 with EC90 plus 0.5 mg GPI-0100; de-sensitized days 8-12 and 15-19 with EC17 spiked with 10% (mole) Bis-FITC-eda; s.c. challenge day 22
Method: Male and female guinea pigs (1 per sex per group) were immunized three times, on Days 1, 8, and 15, with various doses of EC90 plus 0.5 mg GPI-0100. A single dose of test article (EC17+/− Bis-FITC-eda) was administered (s.c.) on Day 22. Guinea pigs were de-sensitized with multiple doses of EC 17 spiked with 10% (mole) Bis-FITC-eda on Days 8-12, and 15-19. On Day 22, these animals were s.c. challenged with the same EC17/Bis-FITC-eda formulation. Clinical observations were generally taken for 1.5-2 hours post challenge. […] Complete macroscopic postmortem examinations were performed on all animals (FIG. 9).

SMILES: Nc1nc2ncc(CNc3ccc(C(=O)NC(CCC(=O)NCCNC(=S)Nc4ccc(-c5c6ccc(=O)cc-6oc6cc(O)ccc56)c(C(=O)O)c4)C(=O)O)cc3)nc2c(=O)[nH]1 (stereo not shown) [EC17]
- tumor volume as a function of time compared to control animals ([1]; Balb/c mice immunized with KLH-FITC 35 μg/dose + GPI-0100 100 μg/dose, folate-FITC 500 nmol/kg daily plus IL-2 20,000 U/dose, early or late dosing protocol): decreased
- effect on tumor volume, early dosing protocol ([1]; folate-FITC 500 nmol/kg daily (qd×5)6 from days 8-50, IL-2 20,000 U/dose days 32-50): effective in decreasing tumor volume
- tumor volume, early versus late dosing protocol ([1]; folate-FITC 500 nmol/kg, late: days 42-60, early: days 8-50, plus IL-2): similar
- allergenicity (signs of anaphylaxis after s.c. challenge), effect of early dosing [2]: reduces allergenicity
